Results published in PubChem BioAssay (NCI).
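These data come from cells grown in 96-well plates and exposed to compound for 48 hours at five concentrations. TGI marks complete inhibition of growth.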

How the values were obtained:
Experiment in all cases: NCI-60 cell line screen, 48 h
HT29 colon = system: HT29 colon
EKVX NSCLC = system: EKVX NSCLC
MDA-MB-231 breast = system: MDA-MB-231 breast
CCRF-CEM leukemia = system: CCRF-CEM leukemia
SK-MEL-5 melanoma = system: SK-MEL-5 melanoma
CAKI-1 renal = system: CAKI-1 renal
SN12C renal = system: SN12C renal
SF-539 CNS = system: SF-539 CNS
MCF7 breast = system: MCF7 breast
OVCAR-8 ovarian = system: OVCAR-8 ovarian
TK-10 renal = system: TK-10 renal
U251 CNS = system: U251 CNS
BT-549 breast = system: BT-549 breast
SK-OV-3 ovarian = system: SK-OV-3 ovarian
SW-620 colon = system: SW-620 colon
MDA-MB-435 = system: MDA-MB-435
HCT-15 colon = system: HCT-15 colon
DU-145 prostate = system: DU-145 prostate
IGROV1 ovarian = system: IGROV1 ovarian
RPMI-8226 leukemia = system: RPMI-8226 leukemia
UACC-62 melanoma = system: UACC-62 melanoma
SF-268 CNS = system: SF-268 CNS
NCI-H522 lung = system: NCI-H522 lung
HOP-92 NSCLC = system: HOP-92 NSCLC
786-0 renal = system: 786-0 renal
MDA-N = system: MDA-N
KM12 colon = system: KM12 colon
NCI-H460 lung = system: NCI-H460 lung
NCI/ADR-RES ovarian = system: NCI/ADR-RES ovarian
SNB-19 CNS = system: SNB-19 CNS
UO-31 renal = system: UO-31 renal
M14 melanoma = system: M14 melanoma
HL-60(TB) leukemia = system: HL-60(TB) leukemia
UACC-257 melanoma = system: UACC-257 melanoma
HOP-62 NSCLC = system: HOP-62 NSCLC
PC-3 prostate = system: PC-3 prostate
RXF 393 renal = system: RXF 393 renal
SK-MEL-28 melanoma = system: SK-MEL-28 melanoma
COLO 205 colon = system: COLO 205 colon
OVCAR-4 ovarian = system: OVCAR-4 ovarian
HCT-116 colon = system: HCT-116 colon
K-562 leukemia = system: K-562 leukemia
NCI-H23 lung = system: NCI-H23 lung
T-47D breast = system: T-47D breast
MOLT-4 leukemia = system: MOLT-4 leukemia
MALME-3M melanoma = system: MALME-3M melanoma
NCI-H226 lung = system: NCI-H226 lung
LOX IMVI melanoma = system: LOX IMVI melanoma
HCC-2998 colon = system: HCC-2998 colon
A549 NSCLC = system: A549 NSCLC
ACHN renal = system: ACHN renal
SNB-75 CNS = system: SNB-75 CNS
SK-MEL-2 melanoma = system: SK-MEL-2 melanoma
OVCAR-3 ovarian = system: OVCAR-3 ovarian
HS 578T breast = system: HS 578T breast
SF-295 CNS = system: SF-295 CNS
SR leukemia = system: SR leukemia
OVCAR-5 ovarian = system: OVCAR-5 ovarian
A498 renal = system: A498 renal

CC(C)C1/C(=N/O)CC(c2ccccc2)N(N=O)C1c1ccccc1 (stereo not drawn)
TGI (HT29 colon): 39 µM
TGI (EKVX NSCLC): 73.5 µM
TGI (MDA-MB-231 breast): > 100 µM
TGI (CCRF-CEM leukemia): > 100 µM
TGI (SK-MEL-5 melanoma): 95.9 µM
TGI (CAKI-1 renal): 89.7 µM
TGI (SN12C renal): > 100 µM
TGI (SF-539 CNS): > 100 µM
TGI (MCF7 breast): > 100 µM
TGI (OVCAR-8 ovarian): > 100 µM
TGI (TK-10 renal): > 100 µM
TGI (U251 CNS): > 100 µM
TGI (BT-549 breast): > 100 µM
TGI (SK-OV-3 ovarian): > 100 µM
TGI (SW-620 colon): > 100 µM
TGI (MDA-MB-435): 72.4 µM
TGI (HCT-15 colon): > 100 µM
TGI (DU-145 prostate): > 100 µM
TGI (IGROV1 ovarian): > 100 µM
TGI (RPMI-8226 leukemia): > 100 µM
TGI (UACC-62 melanoma): 45.3 µM
TGI (SF-268 CNS): > 100 µM
TGI (NCI-H522 lung): > 100 µM
TGI (HOP-92 NSCLC): 78.6 µM
TGI (786-0 renal): > 100 µM
TGI (MDA-N): > 100 µM
TGI (KM12 colon): > 100 µM
TGI (NCI-H460 lung): 67.5 µM
TGI (NCI/ADR-RES ovarian): > 100 µM
TGI (SNB-19 CNS): > 100 µM
TGI (UO-31 renal): 82.9 µM
TGI (M14 melanoma): > 100 µM
TGI (HL-60(TB) leukemia): 86.7 µM
TGI (UACC-257 melanoma): > 100 µM
TGI (HOP-62 NSCLC): > 100 µM
TGI (PC-3 prostate): > 100 µM
TGI (RXF 393 renal): > 100 µM
TGI (SK-MEL-28 melanoma): > 100 µM
TGI (COLO 205 colon): 31 µM
TGI (OVCAR-4 ovarian): > 100 µM
TGI (HCT-116 colon): 85.7 µM
TGI (K-562 leukemia): > 100 µM
TGI (NCI-H23 lung): > 100 µM
TGI (T-47D breast): 96.2 µM
TGI (MOLT-4 leukemia): 95.6 µM
TGI (MALME-3M melanoma): 61.9 µM
TGI (NCI-H226 lung): > 100 µM
TGI (LOX IMVI melanoma): > 100 µM
TGI (HCC-2998 colon): > 100 µM
TGI (A549 NSCLC): > 100 µM
TGI (ACHN renal): > 100 µM
TGI (SNB-75 CNS): > 100 µM
TGI (SK-MEL-2 melanoma): 73.6 µM
TGI (OVCAR-3 ovarian): > 100 µM
TGI (HS 578T breast): > 100 µM
TGI (SF-295 CNS): > 100 µM

Nc1cccc2cc(Cl)cnc12
TGI (HT29 colon): > 100 µM
TGI (EKVX NSCLC): > 100 µM
TGI (MDA-MB-231 breast): > 100 µM
TGI (CCRF-CEM leukemia): > 100 µM
TGI (SK-MEL-5 melanoma): > 100 µM
TGI (CAKI-1 renal): > 100 µM
TGI (SN12C renal): > 100 µM
TGI (SR leukemia): > 100 µM
TGI (SF-539 CNS): > 100 µM
TGI (OVCAR-8 ovarian): > 100 µM
TGI (TK-10 renal): > 100 µM
TGI (U251 CNS): > 100 µM
TGI (OVCAR-5 ovarian): > 100 µM
TGI (BT-549 breast): > 100 µM
TGI (SK-OV-3 ovarian): > 100 µM
TGI (SW-620 colon): > 100 µM
TGI (MDA-MB-435): > 100 µM
TGI (HCT-15 colon): > 100 µM
TGI (DU-145 prostate): > 100 µM
TGI (IGROV1 ovarian): > 100 µM
TGI (RPMI-8226 leukemia): > 100 µM
TGI (UACC-62 melanoma): > 100 µM
TGI (SF-268 CNS): > 100 µM
TGI (NCI-H522 lung): > 100 µM
TGI (HOP-92 NSCLC): > 100 µM
TGI (786-0 renal): > 100 µM
TGI (MDA-N): > 100 µM
TGI (KM12 colon): > 100 µM
TGI (NCI-H460 lung): > 100 µM
TGI (NCI/ADR-RES ovarian): > 100 µM
TGI (SNB-19 CNS): > 100 µM
TGI (UO-31 renal): > 100 µM
TGI (M14 melanoma): > 100 µM
TGI (HL-60(TB) leukemia): > 100 µM
TGI (UACC-257 melanoma): > 100 µM
TGI (HOP-62 NSCLC): > 100 µM
TGI (PC-3 prostate): > 100 µM
TGI (RXF 393 renal): > 100 µM
TGI (SK-MEL-28 melanoma): > 100 µM
TGI (COLO 205 colon): > 100 µM
TGI (OVCAR-4 ovarian): > 100 µM
TGI (A498 renal): > 100 µM
TGI (HCT-116 colon): > 100 µM
TGI (K-562 leukemia): > 100 µM
TGI (NCI-H23 lung): > 100 µM
TGI (T-47D breast): > 100 µM
TGI (MOLT-4 leukemia): > 100 µM
TGI (MALME-3M melanoma): > 100 µM
TGI (NCI-H226 lung): > 100 µM
TGI (LOX IMVI melanoma): > 100 µM
TGI (HCC-2998 colon): > 100 µM
TGI (A549 NSCLC): > 100 µM
TGI (ACHN renal): > 100 µM
TGI (SNB-75 CNS): > 100 µM
TGI (OVCAR-3 ovarian): > 100 µM
TGI (HS 578T breast): > 100 µM
TGI (SF-295 CNS): > 100 µM
